# Results as given in the supplement of paper PMC11061612.
# Key:
# Assay in all cases: Bliss excess, mean over the matrix (fraction); higher = more synergy
# [1] = tested on: BV-173 (Chronic Myelogenous Leukemia)
# Summary of the method: (§1)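 Cell lines in DMEM/F12 or RPMI with 10% FBS were plated in 1536-well plates, held 24 hours at 37°C, 5% CO2, then given two-drug dose matrices for 72 hours (DMSO typically 0.2%). Viability was read by CellTiter-Glo 2.0 luminescence and scaled as inhibition from 0 (vehicle wells) to 1 (blank wells). Combination Emax is the second-highest inhibition in the matrix; Bliss excess is observed combination effect minus expected EA + EB − EA·EB, EA and EB being single-agent effects.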
# EW-18 (Ewing's Sarcoma) = tested on: EW-18 (Ewing's Sarcoma)
# Summary of the method: as §1
# GI-1 (Glioblastoma) = tested on: GI-1 (Glioblastoma)
# Summary of the method: as §1
# [2] = tested on: HSC-2 (Oral Cavity Carcinoma)
# Summary of the method: as §1
# [3] = tested on: HuP-T3 (Pancreatic Carcinoma)
# Summary of the method: as §1
# [4] = tested on: JHH-7 (Hepatocellular Carcinoma)
# Summary of the method: as §1
# [5] = tested on: KINGS-1 (Low Grade Glioma)
# Summary of the method: as §1
# [6] = tested on: KLE (Endometrial Carcinoma)
# Summary of the method: as §1
# [7] = tested on: KYSE-150 (Esophageal Squamous Cell Carcinoma)
# Summary of the method: as §1
# [8] = tested on: MFE-319 (Endometrial Carcinoma)
# Summary of the method: as §1
# NB7 (Neuroblastoma) = tested on: NB7 (Neuroblastoma)
# Summary of the method: as §1
# [9] = tested on: NCI-H2347 (Lung Adenocarcinoma)
# Summary of the method: as §1
# [10] = tested on: NCI-H322M (Lung Adenocarcinoma)
# Summary of the method: as §1
# [11] = tested on: NCI-H513 (Other Solid Carcinomas)
# Summary of the method: as §1
# [12] = tested on: NCI-N87 (Gastric Carcinoma)
# Summary of the method: as §1
# [13] = tested on: OCUM-1 (Gastric Carcinoma)
# Summary of the method: as §1
# RPMI-7951 (Melanoma) = tested on: RPMI-7951 (Melanoma)
# Summary of the method: as §1
# [14] = tested on: SNU-C1 (Colorectal Carcinoma)
# Summary of the method: as §1
# [15] = tested on: TGBC11TKB (Gastric Carcinoma)
# Summary of the method: as §1
# U-87-MG (Glioblastoma) = tested on: U-87-MG (Glioblastoma)
# Summary of the method: as §1
Compound,Bliss excess [1],Bliss excess (EW-18 (Ewing's Sarcoma)),Bliss excess (GI-1 (Glioblastoma)),Bliss excess [2],Bliss excess [3],Bliss excess [4],Bliss excess [5],Bliss excess [6],Bliss excess [7],Bliss excess [8],Bliss excess (NB7 (Neuroblastoma)),Bliss excess [9],Bliss excess [10],Bliss excess [11],Bliss excess [12],Bliss excess [13],Bliss excess (RPMI-7951 (Melanoma)),Bliss excess [14],Bliss excess [15],Bliss excess (U-87-MG (Glioblastoma))
"COc1nnc2ccc(N3CCC(c4ccc(OCCN5CCN(C)C(=O)[C@H]5C)cc4)CC3)nn12 [AZD5153] + Cn1cnc2c(F)c(Nc3ccc(Br)cc3Cl)c(C(=O)NOCCO)cc21 [Selumetinib] (first compound max 1 µM, 7x7, partner max 10 µM)",-0.0503,-0.0364,0.0286,0.045,0.0075,-0.0274,-0.029,-0.0636,0.0195,-0.0265,-0.0011,-0.0361,0.0052,-0.051,-0.0399,-0.0347,0.02,-0.0447,0.0671,-0.0591
"NC1(C(=O)N[C@@H](CCO)c2ccc(Cl)cc2)CCN(c2ncnc3[nH]ccc23)CC1 [Capivasertib] + CC(C)n1c(=O)n(C)c2cnc3cc(F)c(-c4ccc(OCCCN5CCCCC5)nc4)cc3c21 [AZD1390] (first compound max 10 µM, 7x7, partner max 0.3 µM)",-0.0639,-0.084,-0.0226,-0.0117,-0.0444,-0.0584,-0.0398,-0.0455,0.0164,-0.0921,0.0125,-0.0524,-0.0166,-0.0506,-0.0223,-0.039,-0.0748,-0.068,-0.0598,-0.0703
"NC1(C(=O)N[C@@H](CCO)c2ccc(Cl)cc2)CCN(c2ncnc3[nH]ccc23)CC1 [Capivasertib] + C[C@@H]1COCCN1C2=NC(=NC(=C2)C3(CC3)[S@](=N)(=O)C)C4=C5C=CNC5=NC=C4 [AZD6738] (first compound max 10 µM, 7x7, partner max 10 µM)",-0.0271,-0.0504,-0.0606,-0.0096,-0.036,-0.0404,-0.0197,-0.0692,-0.0545,-0.122,-0.0518,-0.0218,-0.0797,-0.0601,-0.0567,-0.0088,-0.0632,-0.0534,-0.09,0.0169
"Cc1c2c(nn1C)CSCc1cc(n(C)n1)CSc1cc(c3ccccc3c1)OCCCc1c(C(=O)O)n(C)c3c-2c(Cl)ccc13 [AZD5991] + CCN(CCO)CCCOc1ccc2c(Nc3cc(CC(=O)Nc4cccc(F)c4)[nH]n3)ncnc2c1 [AZD2811] (first compound max 1 µM, 7x7, partner max 1 µM)",-0.0554,-0.0209,0.0731,0.0322,-0.019,0.0144,-0.0253,-0.0923,-0.0339,0.0215,0.0679,0.0102,-0.0057,-0.0026,-0.0104,-0.0031,-0.0924,-0.0256,0.0266,0.0065
"CN(CCO)CC[C@H](CSc1ccccc1)Nc1ccc(S(=O)(=O)NC(=O)c2ccc(N3CCC([C@@H](O)c4ccccc4-c4ccc(Cl)cc4)CC3)cc2)cc1S(=O)(=O)C(F)(F)F [AZD4320] + C[C@@H]1COCCN1C2=NC(=NC(=C2)C3(CC3)[S@](=N)(=O)C)C4=C5C=CNC5=NC=C4 [AZD6738] (first compound max 1 µM, 7x7, partner max 10 µM)",-0.0453,-0.0539,-0.0203,0.0594,-0.0695,0.0174,-0.0806,-0.0709,-0.0536,-0.0119,-0.0181,-0.0256,-0.0335,-0.0586,-0.0456,-0.0134,-0.0137,-0.115,0.0135,-0.0248
"COc1nnc2ccc(N3CCC(c4ccc(OCCN5CCN(C)C(=O)[C@H]5C)cc4)CC3)nn12 [AZD5153] + C[C@@H]1COCCN1C2=NC(=NC(=C2)C3(CC3)[S@](=N)(=O)C)C4=C5C=CNC5=NC=C4 [AZD6738] (first compound max 1 µM, 7x7, partner max 10 µM)",-0.0506,-0.0306,0.0053,-0.0039,-0.0119,0.04,-0.0124,-0.0287,-0.0482,-0.0852,-0.0111,0.0599,-0.102,0.0117,-0.0135,0.0413,0.0423,-0.0404,-0.046,0.0506
"CN(CCO)CC[C@H](CSc1ccccc1)Nc1ccc(S(=O)(=O)NC(=O)c2ccc(N3CCC([C@@H](O)c4ccccc4-c4ccc(Cl)cc4)CC3)cc2)cc1S(=O)(=O)C(F)(F)F [AZD4320] + CN(C)CCCOc1ccc(-c2ccc3ncc4c(c3c2)n(C2CCOCC2)c(=O)n4C)cn1 [AZD0156] (first compound max 1 µM, 7x7, partner max 1 µM)",-0.0681,0.0042,0.0066,-0.0242,-0.0429,-0.0408,0.007,-0.0824,-0.0392,-0.0009,-0.0333,-0.0378,-0.0432,-0.0484,-0.0474,-0.055,0.0046,-0.0283,-0.0242,-0.0331
"CN(CCO)CC[C@H](CSc1ccccc1)Nc1ccc(S(=O)(=O)NC(=O)c2ccc(N3CCC([C@@H](O)c4ccccc4-c4ccc(Cl)cc4)CC3)cc2)cc1S(=O)(=O)C(F)(F)F [AZD4320] + C1CN(CCC1(C(=O)N[C@@H](CCO)C2=CC=C(C=C2)Cl)N)C3=NC=NC4=C3C=CN4 [Capivasertib] (first compound max 1 µM, 7x7, partner max 3 µM)",-0.0135,-0.0124,0.0172,-0.0379,-0.0678,-0.0256,-0.103,-0.0467,-0.0579,-0.0081,-0.0403,-0.0533,-0.0402,-0.0501,-0.103,-0.0087,0.0055,-0.0886,-0.0398,-0.045
"COc1nnc2ccc(N3CCC(c4ccc(OCCN5CCN(C)C(=O)[C@H]5C)cc4)CC3)nn12 [AZD5153] + CCN(CCO)CCCOc1ccc2c(Nc3cc(CC(=O)Nc4cccc(F)c4)[nH]n3)ncnc2c1 [AZD2811] (first compound max 1 µM, 7x7, partner max 1 µM)",-0.0561,-0.0273,0.0977,-0.0106,-0.0306,-0.0696,-0.0374,-0.0704,-0.0134,-0.085,-0.0296,-0.0549,-0.0612,-0.108,-0.0589,-0.0194,-0.0243,-0.0694,-0.0962,0.0005
